Assay results from US5688943A, “Benzodiazepine derivatives useful as CCK-receptor antagonists” (Yamanouchi Pharmaceutical Co., Ltd., priority 1992, dated 1997).

Columns and labels:
[1] = molecular target: T1, CCK-B receptors (Rattus norvegicus, UniProt P30553); test: Measurement of binding affinity for CCK-B receptors ([125I]BH-CCK-8, rat brain membranes); set-up: species or system SD rats; conditions: for A/B Ratio: ratio IC50 (CCK-A)/IC50 (CCK-B); for IC50: rat brain membranes, [125I]BH-CCK-8, 25° C., 120 minutes, pH 6.5, read-out: Receptor binding affinity IC50, CCK-B
T1 construct: the whole brain was immediately excised from each of the rats and homogenized; from tissue; host or cells: SD rat whole brain membranes
Method: Measurement of binding affinity for CCK-B receptors
About 100 SD rats were decapitated without anaesthesia, the whole brain was immediately excised from each of the rats and homogenized in 10-fold volume of 0.32M aqueous solution of sucrose by the use of a Teflon-coated homogenizer, the homogenate thus obtained was centrifuged for ten minutes at 900 g by the use of a cooled centrifuge, and the supernatant was further centrifuged for 15 minutes at 11500 g. The precipitate thus obtained was dispersed in 50 mM Tris-HCl buffer (pH 7.4) containing 0.08% Triton X-100, this suspension was allowed to stand for 30 minutes and again centrifuged for 15 minutes at 11500 g, the precipitate thus obtained was washed twice with 5 mM Tris-HCl buffer and twice with 50 mM Tris-HCl buffer in that order with centrifugal separation, the washed precipitate was suspended in 50 mM Tris-HCl buffer, and the suspension thus obtained was stored at -80° C. until the membrane preparation was required.
The membrane preparations were warmed to room temperature, diluted with 10 mM HEPES buffer (containing 130 mM NaCl, 5 mM MgCl2, 1 mM EGTA and 0.25 mg/ml bacitracin; pH 6.5) and incubated at 25° C. for 120 minutes in the presence of [^125 I]BH-CCK-8 and the test compound, then separated by suction filtration. Non-specific binding was determined in the presence of 1 μM CCK-8. The amount of labelled ligand bound to the receptor was measured by the use of a γ-counter; IC50 values were determined, being that concentration of test compound required to inhibit specific binding by 50%.
(§1) A high affinity for the CCK-A receptor in a gastrin/CCK-B antagonist is thought to be undesirable as it may lead to side-effects such as cholestasis and gall stone formation during therapy. Therefore it is preferable for the therapeutic agent to be selective for the CCK-B receptor. This selectivity is expressed by the ratio IC50 (CCK-A)/IC50 (CCK-B); the higher the value of this ratio the better is the selectivity.

[2] = test system: pentagastrin-stimulated gastric acid secretion; test: Measurement of inhibition of pentagastrin-stimulated gastric acid secretion in rat; format: in vivo; conditions: anaesthetised rat, test drug intravenous, pentagastrin 15 μg/Kg/hr i.v.; read-out: ED50, reduction of pentagastrin-stimulated gastric acid secretion to 50% of the maximum level
Text: Measurement of inhibition of pentagastrin-stimulated gastric acid secretion in rat
A cannula was inserted into the trachea of a rat anaesthetised with urethane (intraperitoneally administered, 1.25 g/Kg), its abdominal wall was incised to expose the gastric and duodenal portions, and a polyethylene cannula was set in the anterior stomach after ligation of the cardia. The duodenum was then subjected to slight section, a polyethylene cannula was inserted from the incised portion toward the stomach, and the pylorus was ligated to fix the cannula.
Physiological saline (with pH adjusted to 7.0) was perfused from the anterior stomach toward the pylorus at a rate of 3 ml/min, and the gastric-acid secretion was measured by continuous titration of the perfusate by the use of a pH-stat (AUT-201; product of Toa Electronics, Ltd.). The continuous titration was carried out by using 25 mM NaOH solution until the pH reached 7.0, and the result was expressed as the amount of gastric acid secreted for every 10 minutes (μEq /10 min.). Pentagastrin was intravenously administered at a rate of 15 μg/Kg/hr.
The secretion of gastric acid increased upon administration of pentagastrin, reaching the maximum level after 60 minutes and stably maintaining this level after that. A test drug was then intravenously administered, and the secretion of gastric acid was measured; ED50 values were determined, being the amount of the drug required to reduce the amount of secreted gastic acid down to 50% of the maximum level.

[3] = molecular target: T2, CCK-A receptors (Rattus norvegicus, UniProt P30551); test: Measurement of binding affinity for CCK-A receptors ([3H]L-364,718, rat pancreas membranes); set-up: species or system SD rat; conditions: [3H]L-364,718, 37° C., 30 minutes, read-out: Receptor binding affinity IC50, CCK-A
T2 construct: The pancreas of an SD rat was homogenized; from tissue; host or cells: SD rat pancreas membranes
T2 sequence (P30551 1-444): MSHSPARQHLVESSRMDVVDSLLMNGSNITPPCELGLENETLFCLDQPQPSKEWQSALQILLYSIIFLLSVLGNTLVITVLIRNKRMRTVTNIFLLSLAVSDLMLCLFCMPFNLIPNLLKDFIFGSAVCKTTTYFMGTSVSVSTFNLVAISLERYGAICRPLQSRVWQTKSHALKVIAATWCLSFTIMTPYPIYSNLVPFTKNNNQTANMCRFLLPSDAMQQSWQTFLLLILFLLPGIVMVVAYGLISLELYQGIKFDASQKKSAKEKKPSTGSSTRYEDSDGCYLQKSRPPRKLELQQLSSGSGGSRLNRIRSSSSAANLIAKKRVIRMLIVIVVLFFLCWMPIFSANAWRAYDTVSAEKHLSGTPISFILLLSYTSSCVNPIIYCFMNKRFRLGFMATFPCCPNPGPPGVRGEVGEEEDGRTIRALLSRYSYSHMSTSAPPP
Method: Measurement of binding affinity for CCK-A receptors
The pancreas of an SD rat was homogenized in a 20-fold volume of 50 mM Tris-HCl buffer (pH 7.7) by the use of a Polytrone-type homogenizer, the homogenate was twice centrifuged for 10 minutes at 50000 g by the use of an ultra-centrifuge, the precipitate thus obtained was suspended in a 40-fold volume of 50 mM Tris-HCl buffer (containing 0.2% BSA, 5 mM MgCl2, 0.1 mg/ml bacitracin and 5 mM DTT; pH 7.7), and the suspension was stored at -80° C. until the membrane preparations were required.
The membrane preparations were then warmed to room temperature, diluted 1:10 with the buffer and incubated at 37° C. for 30 minutes in the presence of [^3 H]L-364,718 and the test compound then separated by suction filtration. Non-specific binding was determined in the presence of 1 μM L-364,718. The amount of labelled ligand bound to the receptor was measured by the use of a liquid scintillation counter; IC50 values were determined, being that concentration of test compound required to inhibit specific binding by 50%
as §1

T1 sequence (P30553 whole entry): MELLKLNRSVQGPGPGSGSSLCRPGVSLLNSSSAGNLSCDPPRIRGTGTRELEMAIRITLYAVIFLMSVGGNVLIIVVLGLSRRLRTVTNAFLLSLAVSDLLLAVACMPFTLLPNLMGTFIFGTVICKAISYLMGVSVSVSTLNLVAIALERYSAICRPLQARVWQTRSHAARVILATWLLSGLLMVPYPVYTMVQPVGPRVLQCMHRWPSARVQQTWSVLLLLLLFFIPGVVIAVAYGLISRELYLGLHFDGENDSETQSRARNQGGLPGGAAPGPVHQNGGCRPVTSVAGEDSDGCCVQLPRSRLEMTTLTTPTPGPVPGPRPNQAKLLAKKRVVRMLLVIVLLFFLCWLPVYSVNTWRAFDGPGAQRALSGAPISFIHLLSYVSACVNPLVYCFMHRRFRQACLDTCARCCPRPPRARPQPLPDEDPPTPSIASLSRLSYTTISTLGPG

Question: What does the source list for `Cc1cccc(NC(=O)NC2N=C(c3ccccc3)c3ccccc3N(CC(=O)C3CCCC3)C2=O)c1` (racemic) [Example 4, N-((3RS)-1-Cyclopentylcarbonylmethyl-2,3-dihydro-2-oxo-5-phenyl-1H-1,4-benzodiazepin-3-yl)-N'-(3-methylphenyl)urea]?
Answer: A/B Ratio [1]: 1,900; ED50 [2]: 0.016 µmol/kg; IC50 [3]: 440 nM

Question: Which results are given for `O=C(Nc1cccc(C(=O)O)c1)N[C@@H]1N=C(c2ccccc2)c2ccccc2N(CC(O)C2CCCC2)C1=O` (mixture of isomers) [Example 24, N-((3R)-1-((2RS)-2-Cyclopentyl-2-hydroxyethyl)-2,3-dihydro-2-oxo-5-phenyl-1H-1,4-benzodiazepin-3-yl)-N'-(3-carboxyphenyl)urea]?
Answer: IC50 [1]: 0.97 nM; A/B Ratio [1]: > 10,000; IC50 [3]: > 10000 nM

Question: With `COc1cccc(NC(=O)NC2N=C(c3ccccc3)c3ccccc3N(CC(=O)C3CCCC3)C2=O)c1` (racemic) [Example 42, N-((3RS)-1-Cyclopentylcarbonylmethyl-2,3-dihydro-2-oxo-5-phenyl-1H-1,4-benzodiazepin-3-yl)-N'-(3-methoxyphenyl)urea] as the compound, how does the IC50 [1] read?
Answer: Its IC50 is 0.07 nM.

Question: What about the “A/B Ratio” value [1] of the same compound?
Answer: The value was 5,100.

Question: What about the IC50 [3] of the same compound?
Answer: The IC50 was 360 nM.

Question: For `Cc1cccc(NC(=O)N[C@@H]2N=C(c3ccccc3)c3ccccc3N(C)C2=O)c1` [reference compound], which ED50 [2] is on record?
Answer: The ED50 was 4.2 µmol/kg.

Question: With `Cc1cccc(NC(=O)NC2N=C(c3ccccc3)c3ccccc3N(CC(=O)C3(C)CCCCC3)C2=O)c1` (racemic) [Example 34, N-((3RS)-1-((1-Methylcyclohexyl)carbonylmethyl)-2,3-dihydro-2-oxo-5-phenyl-1H-1,4-benzodiazepin-3-yl)-N'-(3-methylphenyl)urea] as the compound, how does the “A/B Ratio” value [1] read?
Answer: Its value is > 26,000.

Question: What about the IC50 [3] of the same compound?
Answer: Its IC50 is over 10000 nM.

Question: Which ED50 [2] does the source give for `Cc1cccc(NC(=O)NC2N=C(c3ccccc3)c3ccccc3N(CC(=O)C3CCCCC3)C2=O)c1` (racemic) [Example 7, N-((3RS)-1-Cyclohexylcarbonylmethyl-2,3-dihydro-2-oxo-5-phenyl-1H-1,4-benzodiazepin-3-yl)-N'-(3-methylphenyl)urea] here?
Answer: The ED50 was 0.047 µmol/kg.

Question: `Cc1cccc(NC(=O)NC2N=C(c3ccccc3)c3ccccc3N(CC(=O)C3CCCCCC3)C2=O)c1` (racemic) [Example 5, N-((3RS)-1-Cycloheptylcarbonylmethyl-2,3-dihydro-2-oxo-5-phenyl-1H-1,4-benzodiazepin-3-yl)-N'-(3-methylphenyl)urea] was tested. Which ED50 [2] did it give?
Answer: Its ED50 is 0.018 µmol/kg.

Question: `O=C(Nc1cccc(C(=O)O)c1)N[C@@H]1N=C(c2ccccc2)c2ccccc2N(CC(=O)C2CCCC2)C1=O` [Example 23, N-((3R)-1-Cyclopentylcarbonylmethyl-2,3-dihydro-2-oxo-5-phenyl-1H-1,4-benzodiazepin-3-yl)-N'-(3-carboxyphenyl)urea] was tested. Which IC50 [1] did it give?
Answer: The IC50 was 0.08 nM.

Question: And the “A/B Ratio” value [1]?
Answer: The value was 11,000.

Question: And the IC50 [3]?
Answer: Its IC50 is 870 nM.

Question: Which results are given for `Cc1cccc(NC(=O)N[C@@H]2N=C(c3ccccc3)c3ccccc3N(C[C@H](O)C3CCCC3)C2=O)c1` (racemic) [Example 12, N-((3RS)-1-((2RS)-2-Cyclopentyl-2-hydroxyethyl)-2,3-dihydro-2-oxo-5-phenyl-1H-1,4-benzodiazepin-3-yl)-N'-(3-methylphenyl)urea]?
Answer: IC50 [1]: 1.4 nM; A/B Ratio [1]: > 7,100; IC50 [3]: > 10000 nM

Question: With `CC(=O)N1CCC[C@H]1C(=O)CN1C(=O)C(NC(=O)Nc2cccc(C)c2)N=C(c2ccccc2)c2ccccc21` (mixture of isomers) [Example 9, N-((3RS)-1-((2S)-1-Acetyl-2-pyrrolidylcarbonylmethyl)-2,3-dihydro-2-oxo-5-phenyl-1H-1,4-benzodiazepin-3-yl)-N'-(3-methylphenyl)urea] as the compound, how does the IC50 [1] read?
Answer: The IC50 was 7.3 nM.

Question: And the “A/B Ratio” value [1]?
Answer: Its value is > 1,400.

Question: And the IC50 [3]?
Answer: The IC50 was over 10000 nM.

Question: Which IC50 [1] does the source give for `Cc1cccc(NC(=O)N[C@@H]2N=C(c3ccccc3)c3ccccc3N(CC(=O)C3CCCC3)C2=O)c1` [Example 17, N-((3R)-1-Cyclopentylcarbonylmethyl-2,3-dihydro-2-oxo-5-phenyl-1H-1,4-benzodiazepin-3-yl)-N'-(3-methylphenyl)urea] here?
Answer: The IC50 was 0.07 nM.

Question: What about the “A/B Ratio” value [1] of the same compound?
Answer: The value was 36,000.

Question: And the IC50 [3]?
Answer: The IC50 was 2500 nM.
